{"source": "patent US11389427B2", "about": "“Compositions and methods of treating cardiac hypertrophy and heart failure” (CASE WESTERN RESERVE UNIVERSITY, priority 2017, dated 2022)", "key": {"[1]": {"tested_on": "C57BL/6J mice, TAC pressure overload", "assay": "Pressure overload model, transaortic constriction (TAC, 27 gauge), 6-week followup", "format": "in vivo", "settings": "for Corrected left ventricle mass (LVm): echocardiogram; for Ejection fraction (EF): SR9009 i.p. daily from 1 day after surgery", "protocol": "SR9009 was synthesized and purified in the laboratory of Thomas Burris (Department of Pharmacology and Physiology, St. Louis University, St. Louis, Mo., USA). For in vitro experiments, SR9009 was dissolved in DMSO and administered at […]; GSK4112 (EMD Millipore) was dissolved in DMSO and administered at […] using an equal volume of DMSO as control. For in vivo experiments, SR9009 was dissolved in 5% DMSO/10% Cremaphor EL (Sigma-Aldrich, C5135)/85% PBS in a working solution at 10 mg/ml. […] The diluent without SR9009 of the same volume was used as control.\n(§1) All mice were C57BL/6J littermate males aged 9 weeks at the start of the experiment. Mice were anesthetized with ketamine/xylazine, mechanically ventilated (Harvard apparatus), and subjected to thoracotomy. The aortic arch was constricted between the left and right carotid arteries using a 7.0 silk suture and a 27- or 28-gauge needle as previously described (20). Chemicals were obtained from Sigma-Aldrich.\n(§2) For transthoracic echocardiography, mice were anesthetized with 1% inhalational isofluorane and imaged using the Vevo 770 High Resolution Imaging System (Visual Sonics Inc.) and the RMV-707B 30 MHz probe. Measurements were obtained from M-mode sampling, and integrated EKVimages were taken in the LV short axis at the mid-papillary level.\nShort-axis heart sections from the midventricle were fixed in PBS/4% paraformaldehyde and embedded in paraffin. Fibrosis was visualized using Gomori's Trichrome staining kit (Sigma-Aldrich) with quantification of fibrotic area using ImagePro software. TUNEL staining was performed using the CardioTACS In Situ Apoptosis Detection kit (R&D Systems) according to manufacturer's instructions. Cryopreserved sections were used for myocardial capillary staining, which was performed in frozen LV sections using anti-PECAM-1 antibodies (1:200, BD Pharmingen, MEC13.3). The cardiomyocyte cross-sectional area was determined by staining with WGA Alexa 594 (Life Technologies) and analyzed using ImagePro software.\nGiven the strong effect of SR9009 in blocking the cellular remodeling in response to neurohormonal stress, we next tested the role of REV-ERBα activation in vivo using the classical pressure overload model. We started daily i.p. injection of SR9009 or Veh 1 day after transaortic constriction (TAC, 27 gauge) surgery and monitored cardiac hypertrophy and function by echocardiogram for 6 weeks. […] These findings were later confirmed by autopsy performed 6 weeks after TAC by heart weight and muscle fiber size analyses using wheat germ agglutinin staining on cryopreserved sections (FIGS. 3, B-E)."}, "mouse heart mitochondria": {"tested_on": "mouse heart mitochondria", "assay": "Mitochondria number, morphology and respiration in mouse hearts after TAC", "format": "in vivo", "settings": "10 weeks after TAC, vs Veh", "protocol": "The assay was performed using Seahorse (Agilent) and following the manufacturer's published protocol. Isolated mitochondria (0.5 μg; measured by BCA assay) were loaded per assay.\nTotal DNA was extracted from the hearts or NRVMs using the QIAamp DNA Mini Kit (Qiagen, 51304). Mitochondrial DNA content was assessed by qPCR using primers specific for multiple mitochondrial-encoded genes (int-Cox1, mt-Nd2, int-Nd1, and mt-Nd5) and normalized to nuclear DNA content (a specific locus on mouse chromosome 6) using the ΔΔCt method.\nSmall pieces of tissue from the LV free wall were fixed by sequential immersion in triple aldehyde-DMSO, ferrocyanide-reduced osmium tetroxide, and acidified uranyl acetate; dehydrated in ascending concentrations of ethanol; passed through propylene oxide; and embedded in Poly/Bed resin (Polysciences Inc., 21844-1). Thin sections were sequentially stained with acidified uranyl acetate, followed by a modification of Sato's triple lead stain, and examined with a JEOL 1200EX electron microscope."}, "[2]": {"tested_on": "human induced pluripotent stem cell-differentiated cardiomyocytes (iPS-CM)", "assay": "Endothelin-1-induced hypertrophic response in human iPS-differentiated cardiomyocytes", "format": "cell-based", "settings": "SR9009 pretreatment, ET-1 (10 nM)", "protocol": "We purchased human induced pluripotent stem cell-differentiated cardiomyocytes from Cellular Dynamics (iCell). We followed manufacturer's protocol and measured NPPB expression 24 hr after ET-1 (10 nM, Sigma-Aldrich) induction.\nFor tissue RNA, a 10-20 mg piece of mouse heart at apex was preserved in RNA Later stabilization reagent (Qiagen) followed by mechanical disruption/homogenization in Trizol (Life Technologies) on a TissueLyser (Qiagen) using stainless steel beads (Qiagen). RNA was purified from the aqueous phase using the miRNAeasy kit (Qiagen) following manufacturer's instructions. For cellular samples, total RNA from NRVM was isolated using the High Pure RNA isolation kit (Roche Diagnostics) with on-column DNAase treatment according to manufacturer's directions. […] Relative expression was calculated using the ΔΔCt-method with normalization to Ppib (Cyclophilin-B). […]\nWe induced cellular hypertrophic response in human induced pluripotent stem cell-differentiated cardiomyocytes with endothelin-1 (ET-1) and monitored NPPB (BNP) expression with SR9009 or Veh pretreatment."}, "[3]": {"tested_on": "cardiac fibroblasts (CFs)", "assay": "TGβ1-induced inflammatory response of cultured cardiac fibroblasts (CFs)", "format": "cell-based, rat", "settings": "cultured CFs pretreated with Veh or SR9009", "protocol": "(§3) NRVMs and CFs were isolated from the hearts of 2-day-old Sprague-Dawley rat pups (Charles River Laboratories). The cells were differentially preplated for 1.5 hr. The nonattached cells were collected as NRVM and replated with 48 hr exposure to BrdU to suppress nonmyocytes. The attached cells were passaged 2-3 times to obtain CFs. NRVMs were initially plated in growth medium (DMEM supplemented with 10% FBS, 100 U/ml penicillin-streptomycin, and 2 mM L-glutamine) for 48 hr and maintained in serum-free media thereafter (DMEM supplemented with 1% insulin-transferrin-selenium liquid media supplement [Sigma-Aldrich, 13146], 100 U/ml penicillin-streptomycin). For hypertrophic stimulation, NRVM were incubated with SR9009 or GSK4112 versus DMSO for 24 hr, followed by stimulation with PE (100 μM) for the indicated time. CFs were cultured in DMEM supplemented with 10% FBS, 100 U/ml penicillin-streptomycin, and 2 mM L-glutamine and stimulated with TGβ1 (eBioscience)."}, "[4]": {"tested_on": "C57BL/6J mice, 28-gauge TAC heart failure model", "assay": "Heart failure model, 28-gauge TAC with cross-over, 11-week followup", "format": "in vivo, mouse", "protocol": "(§4) SR9009 was synthesized and purified in the laboratory of Thomas Burris (Department of Pharmacology and Physiology, St. Louis University, St. Louis, Mo., USA). For in vitro experiments, SR9009 was dissolved in DMSO and administered at […]; GSK4112 (EMD Millipore) was dissolved in DMSO and administered at […] using an equal volume of DMSO as control. For in vivo experiments, SR9009 was dissolved in 5% DMSO/10% Cremaphor EL (Sigma-Aldrich, C5135)/85% PBS in a working solution at 10 mg/ml. Micewere injected at a dose of 100 mg/kg/day given i.p. once daily at zeitgeber time 8 (ZT8). The diluent without SR9009 of the same volume was used as control.\nas §1\nas §2, with “level. […]” for “level.”"}, "[5]": {"tested_on": "neonatal rat ventricular myocytes (NRVMs)", "assay": "Phenylephrine-induced (PE-induced) cardiomyocyte hypertrophy in NRVMs", "format": "cell-based", "design": "PE-induced cellular hypertrophy (cell size) / PE-induced expression of cellular stress markers (qPCR of Nppa and Nppb): unit of the concentration uncertain", "protocol": "as §4\nas §3, with “CFs were cultured in DMEM supplemented with 10% FBS, 100 U/ml penicillin-streptomycin, and 2 mM L-glutamine and stimulated with TGβ1 (eBioscience).” left out\nNRVM were plated on glass coverslips in 6-well dishes at a density of 1×10^5 cells/ml. […] Quantitation of cardiomyocyte cell surface area was performed on anti-actinin-stained cardiomyocytes using fluorescent microscopy and ImagePro software. […]\nFor tissue RNA, a 10-20 mg piece of mouse heart at apex was preserved in RNA Later stabilization reagent (Qiagen) followed by mechanical disruption/homogenization in Trizol (Life Technologies) on a TissueLyser (Qiagen) using stainless steel beads (Qiagen). […] Relative expression was calculated using the ΔΔCt-method with normalization to Ppib (Cyclophilin-B). […]"}, "[6]": {"settings": "mouse, in vivo", "protocol": "Conscious tail-vein systolic blood pressure was measured using the BP2000 Blood Pressure Analysis System (Visitech Systems Inc.) as recommended by the manufacturer. To allow mice to adapt to the apparatus, we performed daily blood pressure measurements for 1 week prior to beginning experiments.\nSR9009 is a drug given systemically and may potentially affect other systems, such as the vascular tone, although pressure overload itself is considered a relatively specific stress directly on the heart. To exclude the possibility that the improved cardiac function and reduced hypertrophy in vivo is associated with improvement in hemodynamics, we measured blood pressure using tail cuff and found there is no difference in mice receiving 4 weeks of Veh (mean arterial pressure [MAP]=106 mmHg) or SR9009 (MAP=115 mmHg, P=0.24)."}}, "data": [{"smiles": "CCOC(=O)N1CCC(CN(Cc2ccc(Cl)cc2)Cc2ccc([N+](=O)[O-])s2)C1", "note": "(stereo not shown) [SR9009]", "values": [{"measurement": "Toxicity of the SR9009 dose", "setting": "[1]; 10 mg/kg/day, daily i.p., mice", "result": "no apparent toxicity"}, {"measurement": "Corrected left ventricle mass (LVm)", "setting": "[1]; 4 weeks after 27-gauge TAC", "result": 111.4, "unit": "mg"}, {"measurement": "Ejection fraction (EF)", "setting": "[1]; 4 weeks after 27-gauge TAC", "result": 61.4, "unit": "%"}, {"measurement": "Corrected left ventricle mass (LVm)", "setting": "[1]; 6 weeks after 27-gauge TAC", "result": 114.8, "unit": "mg"}, {"measurement": "Ejection fraction (EF)", "setting": "[1]; 6 weeks after 27-gauge TAC", "result": 60.6, "unit": "%"}, {"measurement": "Cell death, TUNEL positives per cross-section of the whole heart", "setting": "[1]; 6 weeks after TAC", "result": "13.4 positives per cross-section of the whole heart"}, {"measurement": "Capillary density", "setting": "[1]; after 6 weeks of TAC, Veh- vs SR9009-treated", "result": "no difference"}, {"measurement": "Intramuscular fibrosis area", "setting": "[1]; end of 6 weeks after TAC, Gomori Trichrome", "result": 1.1, "unit": "%"}, {"measurement": "Mitochondria morphology by electron microscopy", "setting": "mouse heart mitochondria", "result": "no difference"}, {"measurement": "Mitochondria number estimated by mtDNA to nuclear DNA ratio", "setting": "mouse heart mitochondria", "result": "no difference"}, {"measurement": "Oxidative phosphorylation (OXPHOS) measured by oxygen consumption rate", "setting": "mouse heart mitochondria", "result": "no difference"}, {"measurement": "ET-1-induced NPPB (BNP) expression", "setting": "[2]", "result": "protective effect"}, {"measurement": "TGβ1-induced inflammatory response", "setting": "[3]", "result": "no difference"}, {"measurement": "Ejection fraction (EF)", "setting": "[4]; 6 weeks after 28-gauge TAC, Group II, SR9009 from 2 weeks after TAC (average EF 44% at start)", "result": "43.9%±5%"}, {"measurement": "Ejection fraction (EF)", "setting": "[4]; after cross-over, additional 5 weeks, Group I received SR9009 (EF 29.1% at cross-over)", "result": "29.8%±3.7%"}, {"measurement": "PE-induced expression of cellular stress markers (qPCR of Nppa and Nppb)", "setting": "[5]; NRVMs pretreated 24 hours, then PE 48 hours, SR9009 at 5 (unit uncertain), GSK4112 at 10 (unit uncertain)", "result": "effectively blocked"}, {"measurement": "PE-induced cellular hypertrophy (cell size)", "setting": "[5]; NRVMs pretreated 24 hours, then PE (100 μM) 48 hours, SR9009 at 5 (unit uncertain)", "result": "effectively blocked"}, {"measurement": "PE repression of Pdk4 expression (RNA-Seq)", "setting": "[5]; NRVMs, SR9009 given 24 hr prior to PE", "result": "ameliorated"}, {"measurement": "Mean arterial pressure (MAP)", "setting": "[6]", "result": 115, "unit": "mmHg"}]}]}
